Several values for one entry are separate records, joined by “and”; a condition that tells them apart may be missing. Equal values may be shown once. Toxic doses and inconclusive results are not listed. No stated cut-off is given here; in the data, active means T/C of 150% or more; inactive means T/C below 125%.
System: L1210 leukemia ip in BDF1 mice, survival T/C
Experiment: NCI In Vivo Anticancer Drug Screen. Data for tumor model L1210 Leukemia (intraperitoneal) in B6D2F1 (BDF1) mice
Conditions: endpoint: mean survival time, higher = longer survival
Procedure, shortened: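 Tumor cells were implanted, animals were treated, and survival was followed. The result divides the treated measurement by the vehicle-control measurement.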

[1] = dose: 100.0 mg/kg/injection, schedule: Q01DX001 (ip), vehicle: other
[2] = dose: 200.0 mg/kg/injection, schedule: Q01DX001 (ip), vehicle: other
[3] = dose: 400.0 mg/kg/injection, schedule: Q01DX001 (ip), vehicle: other
[4] = dose: 100.0 mg/kg/injection, schedule: Q04DX003 (ip), vehicle: saline with Tween-80
[5] = dose: 200.0 mg/kg/injection, schedule: Q04DX003 (ip), vehicle: saline with Tween-80
[6] = dose: 100.0 mg/kg/injection, schedule: Q01DX001 (ip), vehicle: Klucel (hydroxypropylcellulose) (HPC)
[7] = dose: 200.0 mg/kg/injection, schedule: Q01DX001 (ip), vehicle: Klucel (hydroxypropylcellulose) (HPC)
[8] = dose: 400.0 mg/kg/injection, schedule: Q01DX001 (ip), vehicle: Klucel (hydroxypropylcellulose) (HPC)
[9] = dose: 50.0 mg/kg/injection, schedule: Q01DX009 (ip), vehicle: saline
[10] = dose: 100.0 mg/kg/injection, schedule: Q04DX003 (ip), vehicle: saline
[11] = dose: 200.0 mg/kg/injection, schedule: Q04DX003 (ip), vehicle: saline
[12] = dose: 200.0 mg/kg/injection, schedule: Q01DX009 (ip), vehicle: Klucel (hydroxypropylcellulose) (HPC)
[13] = dose: 100.0 mg/kg/injection, schedule: Q01DX009 (ip), vehicle: gum acacia
[14] = dose: 100.0 mg/kg/injection, schedule: Q01DX009 (ip), vehicle: saline
[15] = dose: 100.0 mg/kg/injection, schedule: Q01DX001 (ip), vehicle: saline
[16] = dose: 200.0 mg/kg/injection, schedule: Q01DX001 (ip), vehicle: saline
[17] = dose: 400.0 mg/kg/injection, schedule: Q01DX001 (ip), vehicle: saline
[18] = dose: 100.0 mg/kg/injection, schedule: Q01DX009 (ip), vehicle: saline with Tween-80
[19] = dose: 200.0 mg/kg/injection, schedule: Q01DX009 (ip), vehicle: saline with Tween-80
[20] = dose: 400.0 mg/kg/injection, schedule: Q01DX009 (ip), vehicle: saline with Tween-80
[21] = dose: 400.0 mg/kg/injection, schedule: Q04DX003 (ip), vehicle: saline with Tween-80
[22] = dose: 100.0 mg/kg/injection, schedule: Q04DX002 (ip), vehicle: Klucel (hydroxypropylcellulose) (HPC)
[23] = dose: 200.0 mg/kg/injection, schedule: Q04DX002 (ip), vehicle: Klucel (hydroxypropylcellulose) (HPC)

Measured: T/C

CCOc1ccc(NC(C)=O)cc1Br
inactive: [1] 103 % of control | [2] 103 % of control | [3] 111 % of control

CC(=O)c1ccccc1OC(=S)N(C)C
inactive: [4] 87 % of control | [5] 95 % of control

Cc1cc(NC(=O)CCc2ccc(N3C(N)=NC(N)=NC3(C)C)cc2)ccc1S(=O)(=O)F (tested in a mixture with another compound)
inactive: [6] 90 % of control | [7] 90 % of control | [8] 92 % of control

CC(=O)OCC(=O)C1(O)CCC2C3CCC4CC(OC(C)=O)CCC4(C)C3CC(=O)C21C (configuration not stated)
inactive: [1] 106 % of control | [2] 101 % of control | [3] 102 % of control

COc1ccc2c(c1)sc(=N)n2C
inactive: dose: 100.0 mg/kg/injection, schedule: Q04DX002 (ip), vehicle: saline 97 % of control | dose: 200.0 mg/kg/injection, schedule: Q04DX002 (ip), vehicle: saline 93 % of control

CC/C=C(CC)/C(CC)=C(/CC)CO
inactive: dose: 100.0 mg/kg/injection, schedule: Q01DX001 (ip), vehicle: saline with Tween-80 103 % of control | dose: 200.0 mg/kg/injection, schedule: Q01DX001 (ip), vehicle: saline with Tween-80 95 % of control | dose: 400.0 mg/kg/injection, schedule: Q01DX001 (ip), vehicle: saline with Tween-80 92 % of control

C=C(C)CNC(N)=S
inactive: dose: 75.0 mg/kg/injection, schedule: Q04DX003 (ip), vehicle: Klucel (hydroxypropylcellulose) (HPC) 98 % of control | [6] 105 % of control | dose: 150.0 mg/kg/injection, schedule: Q04DX003 (ip), vehicle: Klucel (hydroxypropylcellulose) (HPC) 89 % of control | [7] 98 % of control | dose: 300.0 mg/kg/injection, schedule: Q04DX003 (ip), vehicle: Klucel (hydroxypropylcellulose) (HPC) 110 % of control | [8] 105 % of control

CCN(CC)CC(C)OC(=O)CCN1CC1 (configuration not stated)
inactive: dose: 3.0 mg/kg/injection, schedule: Q01DX009 (ip), vehicle: saline 100 % of control | dose: 6.0 mg/kg/injection, schedule: Q01DX009 (ip), vehicle: saline 106 % of control | dose: 12.0 mg/kg/injection, schedule: Q01DX009 (ip), vehicle: saline 103 % of control | dose: 25.0 mg/kg/injection, schedule: Q01DX009 (ip), vehicle: saline 101 % of control | dose: 25.0 mg/kg/injection, schedule: Q04DX003 (ip), vehicle: saline 108 % of control | [9] 95 % of control | dose: 50.0 mg/kg/injection, schedule: Q04DX003 (ip), vehicle: saline 101 % of control | [10] 97 % of control and 111 % of control | [11] 103 % of control

CC(C)(CSCCSCC(C)(C)C(=O)O)C(=O)O
inactive: dose: 100.0 mg/kg/injection, schedule: Q01DX009 (ip), vehicle: Klucel (hydroxypropylcellulose) (HPC) 94 % of control | [12] 94 % of control | dose: 400.0 mg/kg/injection, schedule: Q01DX009 (ip), vehicle: Klucel (hydroxypropylcellulose) (HPC) 91 % of control

CCOC(=O)CNC(=O)C(O)C(O)C(O)C(O)CO (configuration not stated)
inactive: [10] 102 % of control | [11] 97 % of control | dose: 400.0 mg/kg/injection, schedule: Q04DX003 (ip), vehicle: saline 91 % of control

O=C(NC(=S)Nc1ccc(F)cc1)c1ccccc1F
inactive: dose: 25.0 mg/kg/injection, schedule: Q01DX009 (ip), vehicle: gum acacia 104 % of control | dose: 50.0 mg/kg/injection, schedule: Q01DX009 (ip), vehicle: gum acacia 107 % of control | [13] 96 % of control and 105 % of control

CN(C)CCN(C(=O)c1ccc(N)cc1)c1ccccc1
inactive: [9] 91 % of control | [14] 109 % of control

COC(=O)c1cc(=O)nc2n1C1OC(CO)C(O)C1O2 (configuration not stated)
inactive: [15] 95 % of control | [16] 101 % of control | [17] 93 % of control

CC(=O)OC1Cc2ccccc21 (configuration not stated)
inactive: [18] 96 % of control | [4] 95 % of control | [19] 109 % of control | [5] 96 % of control | [20] 100 % of control | [21] 98 % of control

CN(C)N=Nc1ccc(C(=O)N/N=C/c2ccc(Br)cc2)cc1
inactive: dose: 100.0 mg/kg/injection, schedule: Q04DX003 (ip), vehicle: Klucel (hydroxypropylcellulose) (HPC) 94 % of control | dose: 200.0 mg/kg/injection, schedule: Q04DX003 (ip), vehicle: Klucel (hydroxypropylcellulose) (HPC) 104 % of control | dose: 400.0 mg/kg/injection, schedule: Q04DX003 (ip), vehicle: Klucel (hydroxypropylcellulose) (HPC) 95 % of control

Cc1ccc(S(=O)(=O)N(C)Cc2ccccc2)cc1
inactive: [4] 95 % of control | [5] 101 % of control | [21] 101 % of control

O=[N+]([O-])/C(N=Nc1ccc2ccccc2c1)=N\Nc1ccc2ccccc2c1
inactive: dose: 10.0 mg/kg/injection, schedule: Q01DX001 (ip), vehicle: acetone 98 % of control | dose: 20.0 mg/kg/injection, schedule: Q01DX001 (ip), vehicle: acetone 94 % of control | dose: 40.0 mg/kg/injection, schedule: Q01DX001 (ip), vehicle: acetone 88 % of control | dose: 75.0 mg/kg/injection, schedule: Q01DX001 (ip), vehicle: acetone 89 % of control | dose: 300.0 mg/kg/injection, schedule: Q01DX001 (ip), vehicle: acetone 89 % of control

COc1ccc(/C=C2N=C(/C=C/c3ccccc3)OC\2=O)cc1OC
inactive: dose: 100.0 mg/kg/injection, schedule: Q04DX002 (ip), vehicle: gum acacia 88 % of control | dose: 200.0 mg/kg/injection, schedule: Q04DX002 (ip), vehicle: gum acacia 95 % of control | dose: 400.0 mg/kg/injection, schedule: Q04DX002 (ip), vehicle: gum acacia 88 % of control

Clc1ccc2c(CBr)ccnc2c1
inactive: [15] 98 % of control | [16] 104 % of control

OC1CC23C(O)CCCC12C1C=CC3C1 (configuration not stated)
inactive: dose: 25.0 mg/kg/injection, schedule: Q04DX002 (ip), vehicle: saline with Tween-80 95 % of control | dose: 50.0 mg/kg/injection, schedule: Q04DX002 (ip), vehicle: saline with Tween-80 98 % of control | dose: 100.0 mg/kg/injection, schedule: Q04DX002 (ip), vehicle: saline with Tween-80 98 % of control | dose: 200.0 mg/kg/injection, schedule: Q04DX002 (ip), vehicle: saline with Tween-80 98 % of control

OC(CN1CCCCC1)c1ccc2oc3ccccc3c2c1 (configuration not stated)
inactive: [22] 110 % of control | [23] 92 % of control

CCCCCCC(=O)/C=C/c1cccc(Cl)c1
inactive: [18] 88 % of control | [19] 88 % of control | [20] 95 % of control

NNc1ccc(S(=O)(=O)C(F)(F)C(F)Cl)cc1 (configuration not stated)
inactive: [13] 105 % of control | dose: 100.0 mg/kg/injection, schedule: Q04DX003 (ip), vehicle: gum acacia 101 % of control | dose: 200.0 mg/kg/injection, schedule: Q01DX009 (ip), vehicle: gum acacia 100 % of control | dose: 200.0 mg/kg/injection, schedule: Q04DX003 (ip), vehicle: gum acacia 96 % of control | dose: 400.0 mg/kg/injection, schedule: Q04DX003 (ip), vehicle: gum acacia 96 % of control

CCOC(=O)C1C2CCCC(=O)C21 (configuration not stated)
inactive: [22] 96 % of control | [23] 104 % of control | dose: 400.0 mg/kg/injection, schedule: Q04DX002 (ip), vehicle: Klucel (hydroxypropylcellulose) (HPC) 100 % of control

COc1cc2c(c(OC)c1OC)-c1ccc(SC)c(=O)cc1C(N(C)C)CC2 (configuration not stated)
inactive: [12] 93 % of control

O=S(=O)(O)CCBr
inactive: dose: 50.0 mg/kg/injection, schedule: Q01DX001 (ip), vehicle: saline 108 % of control | [15] 96 % of control and 104 % of control | [14] 97 % of control | [16] 101 % of control and 108 % of control | dose: 200.0 mg/kg/injection, schedule: Q01DX009 (ip), vehicle: saline 96 % of control | [17] 104 % of control and 106 % of control | dose: 400.0 mg/kg/injection, schedule: Q01DX009 (ip), vehicle: saline 108 % of control

Reference: PubChem BioAssay AID248 (DTP/NCI, 2004)
